Tests used:
[1] = biological target: T1, Progesterone receptor (Ovis aries) (UniProt Q28590); assay: Relative binding affinity to sheep progesterone receptor
T1 sequence (whole entry): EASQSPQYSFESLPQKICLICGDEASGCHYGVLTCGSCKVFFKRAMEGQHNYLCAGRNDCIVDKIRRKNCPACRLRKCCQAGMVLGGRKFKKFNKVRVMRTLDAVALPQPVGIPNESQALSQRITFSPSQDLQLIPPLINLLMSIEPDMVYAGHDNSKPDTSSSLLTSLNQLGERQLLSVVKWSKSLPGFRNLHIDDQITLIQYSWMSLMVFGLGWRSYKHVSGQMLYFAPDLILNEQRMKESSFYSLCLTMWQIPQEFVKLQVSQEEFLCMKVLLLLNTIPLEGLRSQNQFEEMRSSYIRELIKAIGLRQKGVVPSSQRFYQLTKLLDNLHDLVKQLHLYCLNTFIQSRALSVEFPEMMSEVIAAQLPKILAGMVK

[2] = biological target: T2, Progesterone receptor (Oryctolagus cuniculus) (UniProt P06186); assay: Relative binding affinity to rabbit progesterone receptor
T2 sequence (whole entry): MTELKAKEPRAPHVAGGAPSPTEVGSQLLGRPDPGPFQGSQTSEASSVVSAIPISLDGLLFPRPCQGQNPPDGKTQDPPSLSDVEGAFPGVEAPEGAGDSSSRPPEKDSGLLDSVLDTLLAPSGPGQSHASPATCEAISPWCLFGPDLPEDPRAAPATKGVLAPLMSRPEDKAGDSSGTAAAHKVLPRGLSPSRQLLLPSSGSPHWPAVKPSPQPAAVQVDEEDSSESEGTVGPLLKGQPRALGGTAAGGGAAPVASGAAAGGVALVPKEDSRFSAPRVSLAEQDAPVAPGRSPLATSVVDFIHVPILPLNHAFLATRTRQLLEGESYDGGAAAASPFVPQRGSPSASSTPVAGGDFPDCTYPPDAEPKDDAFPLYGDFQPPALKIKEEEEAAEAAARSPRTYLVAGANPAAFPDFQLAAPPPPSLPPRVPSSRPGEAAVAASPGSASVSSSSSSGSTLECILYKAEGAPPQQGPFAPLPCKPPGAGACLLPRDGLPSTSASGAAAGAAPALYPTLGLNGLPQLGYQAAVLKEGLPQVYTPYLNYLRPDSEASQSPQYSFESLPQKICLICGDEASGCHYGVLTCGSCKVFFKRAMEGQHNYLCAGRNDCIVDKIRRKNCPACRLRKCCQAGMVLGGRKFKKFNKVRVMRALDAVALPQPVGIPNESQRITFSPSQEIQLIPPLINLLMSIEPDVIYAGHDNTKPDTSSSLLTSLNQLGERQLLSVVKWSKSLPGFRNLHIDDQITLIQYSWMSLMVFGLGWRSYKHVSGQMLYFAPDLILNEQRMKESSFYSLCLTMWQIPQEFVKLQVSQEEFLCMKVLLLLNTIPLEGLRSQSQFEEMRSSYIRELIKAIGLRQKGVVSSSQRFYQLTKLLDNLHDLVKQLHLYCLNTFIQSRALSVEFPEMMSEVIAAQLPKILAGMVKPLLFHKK

Cavia porcellus = species: Cavia porcellus; assay: Relative binding affinity to guinea pig progesterone receptor
[3] = biological target: T3, Progesterone receptor (Homo sapiens) (UniProt P06401)
T3 sequence (whole entry): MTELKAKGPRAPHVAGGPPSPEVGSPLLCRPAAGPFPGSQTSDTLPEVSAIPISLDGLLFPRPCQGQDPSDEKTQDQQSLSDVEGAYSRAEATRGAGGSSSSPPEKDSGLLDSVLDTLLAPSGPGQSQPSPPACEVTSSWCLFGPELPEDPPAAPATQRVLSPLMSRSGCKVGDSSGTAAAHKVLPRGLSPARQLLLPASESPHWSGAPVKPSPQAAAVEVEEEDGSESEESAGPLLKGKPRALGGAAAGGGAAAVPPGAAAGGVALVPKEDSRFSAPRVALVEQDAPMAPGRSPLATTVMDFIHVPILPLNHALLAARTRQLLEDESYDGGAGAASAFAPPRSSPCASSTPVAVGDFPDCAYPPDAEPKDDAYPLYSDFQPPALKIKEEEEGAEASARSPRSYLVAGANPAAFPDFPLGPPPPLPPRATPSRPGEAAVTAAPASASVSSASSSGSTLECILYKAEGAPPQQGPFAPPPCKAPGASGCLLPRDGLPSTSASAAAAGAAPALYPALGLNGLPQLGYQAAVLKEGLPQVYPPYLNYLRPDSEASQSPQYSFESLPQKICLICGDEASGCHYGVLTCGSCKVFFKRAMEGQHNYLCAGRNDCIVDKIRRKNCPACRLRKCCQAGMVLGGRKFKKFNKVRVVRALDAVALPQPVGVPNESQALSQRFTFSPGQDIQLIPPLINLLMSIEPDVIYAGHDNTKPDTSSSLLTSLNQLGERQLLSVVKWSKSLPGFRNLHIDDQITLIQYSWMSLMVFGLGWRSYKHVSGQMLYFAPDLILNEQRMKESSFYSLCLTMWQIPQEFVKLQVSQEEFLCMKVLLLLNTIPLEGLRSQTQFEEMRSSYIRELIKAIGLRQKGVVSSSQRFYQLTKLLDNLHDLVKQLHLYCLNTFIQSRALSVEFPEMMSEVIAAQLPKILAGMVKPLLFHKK

Compound | log(RBA) [1] | log(RBA) [2] | log(RBA) (Cavia porcellus) | log(RBA) [3]
C[C@H](O)[C@H]1CC[C@H]2[C@@H]3CCC4=CC(=O)CC[C@]4(C)[C@H]3CC[C@]12C | 0.7 | 0.778 | 0.6 | 1
CC(=O)[C@H]1CC[C@H]2[C@@H]3CCC4=CC(=O)CC[C@]4(C)[C@H]3CC(=O)[C@]12C | -1 | -0.221 | -0.52 | -0.69
CC[C@@H]1C[C@H]2[C@@H]3CCC4=CC(=O)CC[C@@H]4[C@H]3CC[C@]2(C)[C@H]1C(=O)CF | 2.08 | 2.36 | 1.6 | 2.23
CC(=O)O[C@]1(C(C)=O)CC[C@H]2[C@@H]3C=C(C)C4=CC(=O)CC[C@]4(C)[C@H]3CC[C@@]21C | 1.51 | 2 | -0.3 | 1.94
CC(=O)[C@H]1CC[C@H]2[C@@H]3[C@H](C)CC4=CC(=O)CC[C@]4(C)[C@H]3CC[C@]12C | 1.32 | 1.61 | 1.67 | 1.43
CC(=O)[C@H]1CC[C@H]2[C@@H]3CCC4=CC(=O)CC[C@]4(CO)[C@H]3CC[C@]12C | -0.52 | -0.301 | -0.22 | -0.52
C#C[C@]1(O)CC[C@H]2[C@@H]3CCC4=CC(=O)CC[C@@H]4[C@H]3[C@@H](Cl)C[C@@]21C | 2.06 | 2.32 | 1.48 | 2.11
C#C[C@]1(O)CC[C@H]2[C@@H]3CC[C@H]4C[C@@H](O)CC[C@@H]4[C@H]3CC[C@@]21C | -1.3 | -0.52 | -2 | -0.7
C[C@]1(O)CC[C@H]2[C@@H]3CCC4=CCCC[C@@H]4[C@H]3CC[C@@]21C | 0.778 | 1.3 | 0.3 | 0.78
CC(=O)O[C@]1(C(C)=O)CC[C@H]2[C@@H]3C=C(Cl)C4=CC(=O)CC[C@]4(C)[C@H]3CC[C@@]21C | 1.78 | 2.16 | -0.097 | 2.08
C[C@]12CC[C@H]3[C@@H](CCC4=CC(=O)CC[C@@]43C)[C@@H]1CC[C@@H]2C(=O)CO | 1.4 | 1.4 | 1.15 | 1.23
C#C[C@]1(O)CC[C@H]2[C@@H]3[C@H](C)CC4=C(CCC(=O)C4)[C@H]3CC[C@@]21C | 0.7 | 0.903 | -0.4 | 0.78
C#C[C@]1(O)CC[C@H]2[C@@H]3CC[C@@H]4C[C@@H](O)CC[C@@H]4[C@H]3CC[C@@]21C | -0.7 | -1 | -1.09 | -0.52
C#C[C@]1(O)CC[C@H]2[C@@H]3CC=C4CCCC[C@@H]4[C@H]3CC[C@@]21C | -0.7 | -0.523 | -1.15 | -1
C#C[C@]1(O)CC[C@H]2[C@@H]3CC[C@H]4CC(=O)CC[C@@H]4[C@H]3CC[C@@]21C | 1 | 1.23 | 0.3 | 1.23
C#C[C@]1(O)CC[C@H]2[C@@H]3CC[C@@H]4C[C@H](O)CC[C@@H]4[C@H]3CC[C@@]21C | -2 | -1 | -2 | -1
C#C[C@]1(O)CC[C@H]2[C@@H]3CC[C@H]4C[C@H](O)CC[C@@H]4[C@H]3CC[C@@]21C | -1.52 | -1 | -2 | -1
C[C@]12CCC(=O)C=C1CC[C@@H]1[C@@H]2[C@@H](O)C[C@@]2(C)[C@H]1CC[C@]2(O)C(=O)CO | -1.3 | -1 | -1 | -1
C[C@]12CCC(=O)C=C1CC[C@@H]1[C@@H]2CC[C@]2(C)C(=O)CC[C@@H]12 | -1 | -1 | -0.7 | -1
CC(=O)[C@H]1CC[C@H]2[C@@H]3CCC4=CC(=O)CC[C@@H]4[C@H]3CC[C@]12C | 2.13 | 2.41 | 2.06 | 2.11
C[C@@H](O)[C@H]1CC[C@H]2[C@@H]3CCC4=CC(=O)CC[C@]4(C)[C@H]3CC[C@]12C | 0 | 1.01 | 0 | 0.3
C#C[C@]1(O)CC[C@H]2[C@@H]3CCC4=C[C@@H](O)CC[C@@H]4[C@H]3CC[C@@]21C | 1 | 1.3 | -0.22 | 1.4
CC[C@@H]1C[C@H]2[C@@H]3C=CC4=CC(=O)CC[C@@H]4[C@H]3CC[C@]2(C)[C@H]1C(=O)CF | 2.13 | 2.24 | 1.17 | 2.15
C#C[C@]1(O)CC[C@H]2[C@@H]3CCC4=CC(=O)CC[C@@H]4[C@H]3CC[C@@]21CC | 2 | 2.62 | 1.43 | 2.22

From ChEMBL document CHEMBL3272135, “Quantitative relationships between steroid structure and binding to putative progesterone receptors” (J Med Chem, 1977)
